Assay results: PMC11173301, “On the Cholesterol Raising Effect of Coffee Diterpenes Cafestol and 16-O-Methylcafestol: Interaction with Farnesoid X Receptor” (International Journal of Molecular Sciences, 2024)

Molecular target: T1, FXR-LBD (FXR-WT; stabilized mutant FXR-CCEE) (Homo sapiens, UniProt Q96RI1)
T1 construct: gene NR1H4; plasmid from Prof; Jinsong Liu; CCEE = C432E/C466E
T1 sequence (Q96RI1 225-472 isoform Q96RI1-2): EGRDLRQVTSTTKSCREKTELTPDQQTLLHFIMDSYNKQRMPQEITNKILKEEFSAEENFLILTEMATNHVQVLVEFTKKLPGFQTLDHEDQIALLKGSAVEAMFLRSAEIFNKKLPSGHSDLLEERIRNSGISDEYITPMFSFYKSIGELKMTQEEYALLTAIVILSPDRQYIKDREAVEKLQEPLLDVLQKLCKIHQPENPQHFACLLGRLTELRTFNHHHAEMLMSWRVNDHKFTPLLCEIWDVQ
Assay: intrinsic fluorescence titration, Stern-Volmer
Assay type: binding
Settings: […] protein, phosphate pH […] NaCl, […] glycerol, […] °C; no inner filter correction
Source text: intrinsic fluorescence titration, Stern-Volmer on FXR-LBD (FXR-WT; stabilized mutant FXR-CCEE) | With GG, the numbers for the FXR-WT and the FXR-CCEE mutant were quite different

Stern-Volmer constant (KSV): 33650 ± 5000 L/mol
SMILES: C/C=C1\C(=O)C[C@H]2[C@@H]3CCC4=CC(=O)CC[C@]4(C)[C@H]3CC[C@]12C [guggulsterone]
